Data: US7951906B2, “Compounds capable of interacting with a cell-surface fibroblast growth factor receptor” (Enkam Pharmaceuticals A/S, priority 2002, dated 2011)
Positions of bridges follow the written chain, without caps; N, C: chain ends. Chains are numbered I, II in the order given. No end group written: not given here.

Tests used:
hippocampal neurons = assay: Neurite outgrowth from hippocampal neurons; assay type: cell-based, rat; details: for stimulation of neurite outgrowth / length of neurites: 24 h, 5 μM F3 module 2; for retained stimulatory effect relative to the entire (non-mutated) FG loop peptide: peptides 50 μM
Description: Dissociated neurons from embryonic rat hippocampus (embryonic day 19), prepared as described (Skladchikova et al., 1999), were grown on Permanox plastic (Nunc) for 24 h at a density of 6000 cells/cm^2, at 37° C., 5% CO2 in Neurobasal medium containing 20 mM Hepes, 100 U/ml penicillin, 100 μg/ml streptomycin, 0.4% BSA supplemented with B27 (Gibco BRL) and the below specified compounds. After 24 h, cells were fixed with paraformaldehyde, stained with Coomassie Brilliant Blue R250 and the length of neurites was measured as described (Skladchikova et al, 1999).

[1] = system: polyclonal antibody raised against the intact FGL-peptide; assay: Competitive ELISA of immunoreactivity with antibody raised against FGL-peptide; assay type: binding; details: rabbit serum
From the text: Antibody specifically recognising an epitope comprising SEQ ID NO: 1 (FGL-peptide) were raised in rabbits according the standard procedure (Gill B M, Barbosa J A, Dinh T Q, Garrod S, O'Connor D T: Chromogranin B: isolation from pheochromocytoma, N-terminal sequence, tissue distribution and secretory vesicle processing. Regul Peptides 33:223-35, 1991). Synthetic FGL-peptide was coupled to a carrier protein, KLH (Keyhole Limpets Hemocyanin). The peptide was mixed with Freunds incomplete adjuvant and the mixture was injected into rabbits. 208 μg peptide was used per immunisation (per rabbit).
Antibodies (serum) were tested for specificity by competitive ELISA using a series FGL-peptide truncated variants according to the protocol described in R. J. Jenny, T. L. Messier, L. A. Ouellette, and W. R. Church, Methods Enzymol. 222, 400 (1993). 100% immunoreactivity was ob-served only with the intact FGL-peptide consisting of SEQ ID NO: 1.

human FGFR1 = target: T1, human FGFR1 (Homo sapiens, UniProt P11362); assay: FGFR1 phosphorylation, Assay 1 (TREX-293 cells, StrepII-tagged FGFR1); assay type: cell-based; details: 20 min, 5 μM F3 module, 2.5 μM dendrimeric FG loop peptide
T1 construct: expressed in transfected cells; host or cells: TREX-293 cells (Invitrogen), Flp-In system
T1 sequence (P11362 22-822): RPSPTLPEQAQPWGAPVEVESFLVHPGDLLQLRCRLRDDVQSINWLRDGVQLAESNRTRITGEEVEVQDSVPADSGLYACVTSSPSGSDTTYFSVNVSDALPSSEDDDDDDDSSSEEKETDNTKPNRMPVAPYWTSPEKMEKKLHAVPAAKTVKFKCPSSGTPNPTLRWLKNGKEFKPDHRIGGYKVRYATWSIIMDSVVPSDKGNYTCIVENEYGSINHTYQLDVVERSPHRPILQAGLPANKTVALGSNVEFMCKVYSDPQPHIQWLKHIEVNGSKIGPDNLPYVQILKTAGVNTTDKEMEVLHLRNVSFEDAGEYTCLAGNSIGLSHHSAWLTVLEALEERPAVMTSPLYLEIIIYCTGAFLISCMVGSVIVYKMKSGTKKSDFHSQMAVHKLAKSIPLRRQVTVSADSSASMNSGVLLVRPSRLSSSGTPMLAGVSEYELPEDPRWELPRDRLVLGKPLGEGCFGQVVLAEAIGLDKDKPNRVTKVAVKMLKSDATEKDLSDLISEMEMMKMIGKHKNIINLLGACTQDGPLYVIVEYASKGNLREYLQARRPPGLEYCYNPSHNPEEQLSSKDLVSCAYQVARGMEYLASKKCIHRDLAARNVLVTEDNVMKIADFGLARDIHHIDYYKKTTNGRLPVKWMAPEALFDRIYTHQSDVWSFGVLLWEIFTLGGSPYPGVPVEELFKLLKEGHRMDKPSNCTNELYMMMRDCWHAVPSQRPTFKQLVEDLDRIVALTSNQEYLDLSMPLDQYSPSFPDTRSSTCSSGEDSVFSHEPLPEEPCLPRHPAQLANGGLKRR
Description: Assay 1: TREX-293 cells (Invitrogen) were stably transfected with human FGFR1 having a C-terminal StrepII-tag (IBA biotech), using the Flp-In system (Invitrogen). For the study of phosphorylation: ˜2×10^7 cells were starved overnight before stimulation for 20 min with the specified compounds. Cells were lysed in PBS with 1% NP-40 and phosphatase inhibitors cocktail set II (Calbiochem). The cleared cell lysates were incubated with 50 μl agarose-coupled anti-phosphotyrosine antibodies (4G10-AC, Upstate Biotechnologies) for 3 hrs at 4° C. Care was taken to calibrate the amount of cells employed, so that considerable increases in phosphorylated FGFR could be detected. The bound protein was washed, eluted using 150 mM phenyl phosphate (Sigma), precipitated by 12% trichloroacetic acid, washed in cold acetone and dissolved in SDS-PAGE sample buffer. Immunoblotting was performed using antibodies against the recombinant StrepII-tag (IBA biotech). For immunoprecipitation: ˜1×10^7 cells were transiently transfected with the 180 kDa NCAM isoform or a control vector. Cells were incubated for 24 h and then starved overnight. After lysis, FGFR was purified on a StrepTactin Minicolumn (IBA Biotech) according to the manufacturer's instructions, and analyzed by immunoblotting with polyclonal antibodies against human NCAM.

FGFR1 Ig modules 2, 3 = target: T2, FGFR1 Ig modules 2, 3 (Mus musculus, UniProt P16092); assay: SPR binding to immobilized FGFR Ig modules 2, 3; details: for coefficient of dissociation: immobilized FGFR modules 2, 3
T2 construct: amino acids 249-365 and 141-365 of FGFR (swissprot p16092), respectively; made in house; host or cells: Drosophila S2 cells
T2 sequence (P16092 141-365): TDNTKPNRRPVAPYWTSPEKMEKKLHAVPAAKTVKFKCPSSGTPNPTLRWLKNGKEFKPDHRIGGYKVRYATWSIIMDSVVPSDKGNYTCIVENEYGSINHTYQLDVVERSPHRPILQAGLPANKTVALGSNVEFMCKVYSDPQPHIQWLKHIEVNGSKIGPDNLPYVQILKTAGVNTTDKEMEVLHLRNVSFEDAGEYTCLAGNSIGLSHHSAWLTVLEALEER
From the text: The NCAM F3 modules 1, 2 (without expression of exons a, AAG), and FGFR1 Ig modules 2, 3 were produced using rat NCAM cDNA and mouse FGFR1 (IIIC iso-form) cDNA. The F3 module 1 and the combined F3 modules 1, 2 consist of […] (SEQ ID NO:173) and amino acids 507-611 and 507-705 of NCAM (swissprot p13596), respectively. […] The FGFR Ig module 2 consists of […] […] The FGFR Ig module 3 and the combined Ig modules 2, 3 consist of […] (SEQ ID NO:174) and amino acids 249-365 and 141-365 of FGFR (swissprot p16092), respectively. […] All the proteins were purified by affinity chromatography using Ni2^+−NTA resin (Qiagen, USA) and/or ion exchange chromatography and gel filtration. ^15N-labelled F3 module 2 was produced as described (Thomsen et al., 1996). The NCAM Ig modules 1, 2 and 3 (RV and amino acids 20-308 of rat NCAM, swissprot p13596) was produced as described (Soroka et al., 2002).
The flow-rate was 5 μl/min. […] The FGFR Ig modules 2, 3 were immobilized on a sensor chip CM5 using amine coupling kit (Biosensor AB) as follows: 1) the two halves of the chip (designated Fc1 and Fc2) were activated by 20 μl activation solution; 2) the protein was immobilized on Fc1 using 12 μl 20 μg/ml protein in 10 mM sodium phosphate buffer pH 6.0; 3) Fc1 and Fc2 were blocked by 35 μl blocking solution. […] The resulting curve was used for analysis.

## Nc1ncnc2c1ncn2[C@@H]1O[C@H](COP(=O)(O)OP(=O)(O)CP(=O)(O)O)[C@@H](O)[C@H]1O [AMP-PCP, reference compound]
Hippocampal neurons; 5 μM F3 module, ATP or AMP-PCP 0.4, 1.0 mM
  inhibition of the neuritogenic effect induced by the F3 module 2: complete inhibition
Hippocampal neurons; 50 μM peptide, ATP or AMP-PCP 0.4, 1.0 mM
  inhibition of the neuritogenic effect induced by the FG loop peptide: complete inhibition

## t1: truncated FGL-peptide lacking the three N-terminal amino acids (VVAENQQGKSKA; NCAM Fn III, 2 [Swiss-Prot P13591] FGFR binding motif (variant))
[1]
  immunoreactivity: 40%

## t4: truncated FGL-peptide lacking the three C-terminal amino acids (EVYVVAENQQGK; NCAM Fn III, 2 [Swiss-Prot P13591] FGFR binding motif (variant))
[1]
  immunoreactivity: 80%

## I: EVYVVAENQQGKSKAKK / II: EVYVVAENQQGKSKAK / III: EVYVVAENQQGKSKA / IV: EVYVVAENQQGKSKA (amide I:16-IV:C, I:17-II:C, II:16-III:C (inferred)) [dendrimeric FG loop peptide]
Human FGFR1
  FGFR phosphorylation compared to the non-stimulated cells: substantially increase
FGFR1 Ig modules 2, 3
  coefficient of dissociation: 3.97±2.29×10^−3 s^−1
FGFR1 Ig modules 2, 3; immobilized FGFR modules 2, 3, read-out: coefficient of association
  kon: 2070 ± 1.08e+06 M⁻¹ s⁻¹

## SEQ ID NO:171: 11-amino acid fragment of SEQ ID NO: 5 (axonal-associated cell adhesion molecule), two amino acids truncated from the C-terminus (VAENSRGKNVA; Axonal-associated cell adhesion molecule [NCBI NP_446331] FGFR binding motif)
Hippocampal neurons; hippocampal neurons
  stimulation of neurite outgrowth / length of neurites: capable of stimulation of neurite outgrowth
Hippocampal neurons; hippocampal neurons, neurite outgrowth
  concentration of the peptide at maximal effect: about 0.3 μg/ml

## TIMGLKPETRYAVR (FIII,1 domain of NCAM (Swiss-Prot P13591) FGFR binding motif) [EF loop peptide, peptide corresponding to residues T^573-R^586 of the NCAM F3 module 1]
FGFR1 Ig modules 2, 3
  binding to the immobilized FGFR modules: cannot be detected
Hippocampal neurons; hippocampal neurons
  stimulation of neurite outgrowth / length of neurites: stimulate the neurite outgrowth significantly

## YKK: the FG loop peptide in which Y^74, K^83 and K^85 were substituted with alanine (EVAVVAENQQGASAA)
Hippocampal neurons; 50 μM peptide, ATP 0.4, 1.0 mM
  inhibition of the stimulatory effect of the peptide by ATP: could no longer be inhibited
Hippocampal neurons; hippocampal neurons
  stimulation of neurite outgrowth / length of neurites: retained its neuritogenic potency
  retained stimulatory effect relative to the entire (non-mutated) FG loop peptide: about 60%

## nonamer V^76-S^84: truncated version of the FG loop peptide, residues V^76-S^84 (VAENQQGKS; NCAM Fn III, 2 [Swiss-Prot P13591] FGFR binding motif (Variant))
Hippocampal neurons; hippocampal neurons
  retained stimulatory effect relative to the entire (non-mutated) FG loop peptide: approximately 50%

## SEQ ID NO:151: truncated version of the FG loop peptide, residues A^77-K^83 of the NCAM F3 module 2 (AENQQGK; NCAM Fn III, 2 [Swiss-Prot P13591] FGFR binding motif (Variant))
Hippocampal neurons; hippocampal neurons, neurite length versus concentration
  neurite outgrowth in dose-response study: induced neurite outgrowth with a bell-shaped curve
Hippocampal neurons; hippocampal neurons
  retained stimulatory effect relative to the entire (non-mutated) FG loop peptide: approximately 50%

## dendrimeric EF loop peptide: four peptide sequences of SEQ ID NO: 9 connected to a three-lysine backbone through their C-termini (TIMGLKPETRYAVR; also: four copies linked via C-termini to three-lysine dendrimer backbone)
FGFR1 Ig modules 2, 3
  binding to the immobilized FGFR modules: real-time binding

## peptide derived from FGF2: peptide from a loop region in FGF2 similar to the heptameric NCAM peptide (AMKEDGR; FGF2)
Hippocampal neurons; hippocampal neurons
  stimulation of neurite outgrowth / length of neurites: to the same extent as the similar NCAM peptide

## Cc1c[nH]c(/C=C2\C(=O)Nc3ccccc32)c1CCC(=O)O [SU54402, reference compound]
Hippocampal neurons; hippocampal neurons
  block of neurite outgrowth stimulation by the EF loop peptide: specifically blocked

B1: NCAM F3 modules 1, 2: recombinant protein: AGHHHHHH and amino acids 507-705 of rat NCAM (swissprot p13596) (protein)
chain: AGHHHHHHQADTPSSPSIDRVEPYSSTAQVQFDEPEATGGVPILKYKAEWKSLGEEAWHSKWYDAKEANMEGIVTIMGLKPETRYAVRLAALNGKGLGEISAATEFKTQPVREPSAPKLEGQMGEDGNSIKVNLIKQDDGGSPIRHYLVKYRALASEWKPEIRLPSGSDHVMLKSLDWNAEYEVYVVAENQQGKSKAAHFVFRTSAQ
FGFR1 Ig modules 2, 3
  binding to the immobilized FGFR modules: binds
  coefficient of dissociation: 5.56±0.07×10^−3 s^−1

B2: NCAM Ig modules 1, 2 and 3: control protein: RV and amino acids 20-308 of rat NCAM, swissprot p13596 (protein)
chain: RVLQVDIVPSQGEISVGESKFFLCQVAGDAKDKDISWFSPNGEKLSPNQQRISVVWNDDDSSTLTIYNANIDDAGIYKCVVTAEDGTQSEATVNVKIFQKLMFKNAPTPQEFKEGEDAVIVCDVVSSLPPTIIWKHKGRDVILKKDVRFIVLSNNYLQIRGIKKTDEGTYRCEGRILARGEINFKDIQVIVNVPPTVQARQSIVNATANLGQSVTLVCDADGFPEPTMSWTKDGEPIENEEEDDEKHIFSDDSSELTIRNVDKNDEAEYVCIAENKAGEQDASIHLKVFAK
FGFR1 Ig modules 2, 3
  binding to the immobilized FGFR modules: does not bind
